Experimental data: PMC11231114 (EJNMMI Research, 2024)

Key:
[1] = Ex vivo biodistribution after i.v. injection; format: in vivo, Wistar rats
Protocol: Approximately 0.2 mL/31.1 MBq of compound was administered i.v. At established time points after injection (15 min, 30 min, 1 h, 2 h, 4 h and 6 h), the animals were euthanized by cervical dislocation and dissected. Selected organs and tissues were weighed, and their radioactivity was measured using a NaI(Tl) crystal gamma counter. The results were adjusted for the radioactive decay of ^18F. The physiological distribution was calculated and expressed in terms of the percentage of administrated dose found in each of the selected organs (%ID) or per gram of tissues/organ (%ID/g) with suitable standards of the injected dose.
The results of radiopharmaceutical uptake are presented as a percentage of the dose administered per gram of tissue (%ID/g) in the form of an average with standard deviation (%ID/g; mean ± standard deviation (SD)). Where applicable, statistical analysis was performed with one-way analysis of variance (ANOVA) using GraphPad Prism software (GraphPad Software, La Jolla, CA, USA).

[2] = Dynamic microPET/CT imaging
Protocol: The scans were performed on a trimodal small animal scanner Albira Si PET/SPECT/CT Preclinical Imaging System (Bruker, Billerica, MA, USA) in a group of Wistar rats anesthetized with isoflurane (induction 4%, maintenance 1.5-2%).

[3] = 15 min after dosing, listed as [18F]SYN2
[4] = 6 h after dosing, listed as [18F]SYN2

CN(C)c1ccc2cc3ccc(N(C)C)cc3[n+](CC[18F])c2c1 [[^18F]SYN2]
Mean %ID, Brain ([1]; 15 min after dosing): 0.23 (0.09) %ID
Mean %ID, Heart ([1]; 15 min after dosing): 2.15 (0.18) %ID
Mean %ID, Intestine ([1]; 15 min after dosing): 17.1 ± 1.8 %ID
Mean %ID, Kidneys ([1]; 15 min after dosing): 13.4 ± 4.0 %ID
Mean %ID, Liver ([1]; 15 min after dosing): 7.57 (0.96) %ID
Mean %ID, Lungs ([1]; 15 min after dosing): 3.88 (0.36) %ID
Mean %ID, Pancreas ([1]; 15 min after dosing): 1.33 (0.23) %ID
Mean %ID, Rest of the body ([1]; 15 min after dosing): 51.01 (2.66) %ID
Mean %ID, Spleen ([1]; 15 min after dosing): 1.01 (0.20) %ID
Mean %ID, Stomach ([1]; 15 min after dosing): 1.99 (0.68) %ID
Mean %ID, Urine ([1]; 15 min after dosing): 0.46 (0.31) %ID
Mean %ID/g, Blood ([1]; 15 min after dosing): 0.33 (0.04) %ID/g
Mean %ID/g, Brain ([1]; 15 min after dosing): 0.13 (0.15) %ID/g
Mean %ID/g, Heart ([1]; 15 min after dosing): 3.02 %ID/g
Mean %ID/g, Intestine ([1]; 15 min after dosing): 0.98 (0.10) %ID/g
Mean %ID/g, Kidneys ([1]; 15 min after dosing): 7.07 (1.77) %ID/g
Mean %ID/g, Liver ([1]; 15 min after dosing): 0.89 (0.14) %ID/g
Mean %ID/g, Lungs ([1]; 15 min after dosing): 3.04 (0.55) %ID/g
Mean %ID/g, Muscle ([1]; 15 min after dosing): 0.82 (0.13) %ID/g
Mean %ID/g, Pancreas ([1]; 15 min after dosing): 2.22 (0.24) %ID/g
Mean %ID/g, Spleen ([1]; 15 min after dosing): 1.96 (0.51) %ID/g
Mean %ID/g, Stomach ([1]; 15 min after dosing): 1.65 (0.94) %ID/g
Mean %ID, Intestine [1, 3]: 17.12 (1.81) %ID
Mean %ID, Kidneys [1, 3]: 13.35 (3.97) %ID
Mean %ID, Brain ([1]; 30 min after dosing): 0.19 (0.01) %ID
Mean %ID, Heart ([1]; 30 min after dosing): 2.19 (0.26) %ID
Mean %ID, Intestine ([1]; 30 min after dosing): 18.27 (1.40) %ID
Mean %ID, Kidneys ([1]; 30 min after dosing): 14.01 (3.78) %ID
Mean %ID, Liver ([1]; 30 min after dosing): 6.87 (1.10) %ID
Mean %ID, Lungs ([1]; 30 min after dosing): 2.64 (0.47) %ID
Mean %ID, Pancreas ([1]; 30 min after dosing): 0.97 (0.32) %ID
Mean %ID, Rest of the body ([1]; 30 min after dosing): 51.34 (1.73) %ID
Mean %ID, Spleen ([1]; 30 min after dosing): 0.79 (0.16) %ID
Mean %ID, Stomach ([1]; 30 min after dosing): 1.54 (0.12) %ID
Mean %ID, Urine ([1]; 30 min after dosing): 0.53 (0.25) %ID
Mean %ID/g, Blood ([1]; 30 min after dosing): 0.14 (0.02) %ID/g
Mean %ID/g, Brain ([1]; 30 min after dosing): 0.11 (0.00) %ID/g
Mean %ID/g, Heart ([1]; 30 min after dosing): 2.96 (0.49) %ID/g
Mean %ID/g, Intestine ([1]; 30 min after dosing): 1.29 (0.40) %ID/g
Mean %ID/g, Kidneys ([1]; 30 min after dosing): 7.22 (2.09) %ID/g
Mean %ID/g, Liver ([1]; 30 min after dosing): 0.74 (0.11) %ID/g
Mean %ID/g, Lungs ([1]; 30 min after dosing): 1.85 (0.24) %ID/g
Mean %ID/g, Muscle ([1]; 30 min after dosing): 0.46 (0.11) %ID/g
Mean %ID/g, Pancreas ([1]; 30 min after dosing): 1.75 (0.56) %ID/g
Mean %ID/g, Spleen ([1]; 30 min after dosing): 1.59 (0.41) %ID/g
Mean %ID/g, Stomach ([1]; 30 min after dosing): 1.11 (0.08) %ID/g
heart/liver ratio ([1]; 1 h, based on %ID/g): 7.0 ± 1.8
heart/lungs ratio ([1]; 1 h, based on %ID/g): 2.1 ± 0.2
Mean %ID, Brain ([1]; 1 h after dosing): 0.22 (0.12) %ID
Mean %ID, Heart ([1]; 1 h after dosing): 2.23 (0.11) %ID
Mean %ID, Intestine ([1]; 1 h after dosing): 20.18 (3.19) %ID
Mean %ID, Kidneys ([1]; 1 h after dosing): 12.91 (2.36) %ID
Mean %ID, Liver ([1]; 1 h after dosing): 3.66 (0.83) %ID
Mean %ID, Lungs ([1]; 1 h after dosing): 1.89 (0.23) %ID
Mean %ID, Pancreas ([1]; 1 h after dosing): 0.93 (0.01) %ID
Mean %ID, Rest of the body ([1]; 1 h after dosing): 46.30 (1.89) %ID
Mean %ID, Spleen ([1]; 1 h after dosing): 0.60 (0.10) %ID
Mean %ID, Stomach ([1]; 1 h after dosing): 1.84 (0.47) %ID
Mean %ID, Urine ([1]; 1 h after dosing): 1.59 (0.30) %ID
Mean %ID/g, Blood ([1]; 1 h after dosing): 0.08 (0.02) %ID/g
Mean %ID/g, Brain ([1]; 1 h after dosing): 0.12 (0.06) %ID/g
Mean %ID/g, Heart ([1]; 1 h after dosing): 3.0 ± 0.2 %ID/g
Mean %ID/g, Intestine ([1]; 1 h after dosing): 1.04 (0.18) %ID/g
Mean %ID/g, Kidneys ([1]; 1 h after dosing): 6.76 (1.23) %ID/g
Mean %ID/g, Liver ([1]; 1 h after dosing): 0.45 (0.11) %ID/g
Mean %ID/g, Lungs ([1]; 1 h after dosing): 1.42 (0.15) %ID/g
Mean %ID/g, Muscle ([1]; 1 h after dosing): 0.58 (0.18) %ID/g
Mean %ID/g, Pancreas ([1]; 1 h after dosing): 1.63 (0.16) %ID/g
Mean %ID/g, Spleen ([1]; 1 h after dosing): 1.15 (0.23) %ID/g
Mean %ID/g, Stomach ([1]; 1 h after dosing): 1.33 (0.33) %ID/g
Mean %ID/g, Heart ([1]; 1 h after dosing, listed as [18F]SYN2): 2.99 (0.20) %ID/g
heart/blood ratio ([1]; 1 h post-injection): 37
Mean %ID, Brain ([1]; 2 h after dosing): 0.12 (0.01) %ID
Mean %ID, Heart ([1]; 2 h after dosing): 2.03 (0.23) %ID
Mean %ID, Intestine ([1]; 2 h after dosing): 25.93 (2.92) %ID
Mean %ID, Kidneys ([1]; 2 h after dosing): 9.65 (1.42) %ID
Mean %ID, Liver ([1]; 2 h after dosing): 2.46 (0.28) %ID
Mean %ID, Lungs ([1]; 2 h after dosing): 1.25 (0.31) %ID
Mean %ID, Pancreas ([1]; 2 h after dosing): 0.94 (0.22) %ID
Mean %ID, Rest of the body ([1]; 2 h after dosing): 44.09 (5.00) %ID
Mean %ID, Spleen ([1]; 2 h after dosing): 0.44 (0.04) %ID
Mean %ID, Stomach ([1]; 2 h after dosing): 1.66 (0.16) %ID
Mean %ID, Urine ([1]; 2 h after dosing): 3.94 (3.35) %ID
Mean %ID/g, Blood ([1]; 2 h after dosing): 0.04 (0.00) %ID/g
Mean %ID/g, Brain ([1]; 2 h after dosing): 0.07 (0.00) %ID/g
Mean %ID/g, Heart ([1]; 2 h after dosing): 2.58 (0.24) %ID/g
Mean %ID/g, Intestine ([1]; 2 h after dosing): 1.50 (0.24) %ID/g
Mean %ID/g, Kidneys ([1]; 2 h after dosing): 5.10 (0.85) %ID/g
Mean %ID/g, Liver ([1]; 2 h after dosing): 0.30 (0.04) %ID/g
Mean %ID/g, Lungs ([1]; 2 h after dosing): 0.90 (0.22) %ID/g
Mean %ID/g, Muscle ([1]; 2 h after dosing): 0.41 (0.09) %ID/g
Mean %ID/g, Pancreas ([1]; 2 h after dosing): 1.55 (0.36) %ID/g
Mean %ID/g, Spleen ([1]; 2 h after dosing): 0.84 (0.11) %ID/g
Mean %ID/g, Stomach ([1]; 2 h after dosing): 1.23 (0.22) %ID/g
Mean %ID, Brain ([1]; 4 h after dosing): 0.25 (0.04) %ID
Mean %ID, Heart ([1]; 4 h after dosing): 2.15 (0.08) %ID
Mean %ID, Intestine ([1]; 4 h after dosing): 30.51 (0.47) %ID
Mean %ID, Kidneys ([1]; 4 h after dosing): 5.20 (0.36) %ID
Mean %ID, Liver ([1]; 4 h after dosing): 1.71 (0.27) %ID
Mean %ID, Lungs ([1]; 4 h after dosing): 0.89 (0.02) %ID
Mean %ID, Pancreas ([1]; 4 h after dosing): 0.84 (0.35) %ID
Mean %ID, Rest of the body ([1]; 4 h after dosing): 44.50 (2.38) %ID
Mean %ID, Spleen ([1]; 4 h after dosing): 0.32 (0.03) %ID
Mean %ID, Stomach ([1]; 4 h after dosing): 1.94 (0.38) %ID
Mean %ID, Urine ([1]; 4 h after dosing): 12.42 (1.40) %ID
Mean %ID/g, Blood ([1]; 4 h after dosing): 0.06 (0.02) %ID/g
Mean %ID/g, Brain ([1]; 4 h after dosing): 0.13 (0.02) %ID/g
Mean %ID/g, Heart ([1]; 4 h after dosing): 2.68 (0.44) %ID/g
Mean %ID/g, Intestine ([1]; 4 h after dosing): 1.88 (0.10) %ID/g
Mean %ID/g, Kidneys ([1]; 4 h after dosing): 2.86 (0.08) %ID/g
Mean %ID/g, Liver ([1]; 4 h after dosing): 0.21 (0.05) %ID/g
Mean %ID/g, Lungs ([1]; 4 h after dosing): 0.70 (0.02) %ID/g
Mean %ID/g, Muscle ([1]; 4 h after dosing): 0.51 (0.04) %ID/g
Mean %ID/g, Pancreas ([1]; 4 h after dosing): 1.56 (0.06) %ID/g
Mean %ID/g, Spleen ([1]; 4 h after dosing): 0.66 (0.06) %ID/g
Mean %ID/g, Stomach ([1]; 4 h after dosing): 1.58 (0.25) %ID/g
Mean %ID, Brain ([1]; 6 h after dosing): 0.21 (0.02) %ID
Mean %ID, Heart ([1]; 6 h after dosing): 2.27 (0.21) %ID
Mean %ID, Intestine ([1]; 6 h after dosing): 33.4 ± 1.4 %ID
Mean %ID, Kidneys ([1]; 6 h after dosing): 3.4 ± 0.4 %ID
Mean %ID, Liver ([1]; 6 h after dosing): 1.07 (0.11) %ID
Mean %ID, Lungs ([1]; 6 h after dosing): 0.78 (0.14) %ID
Mean %ID, Pancreas ([1]; 6 h after dosing): 0.80 (0.05) %ID
Mean %ID, Rest of the body ([1]; 6 h after dosing): 44.67 (1.68) %ID
Mean %ID, Spleen ([1]; 6 h after dosing): 0.29 (0.02) %ID
Mean %ID, Stomach ([1]; 6 h after dosing): 1.53 (0.15) %ID
Mean %ID, Urine ([1]; 6 h after dosing): 15.27 (0.87) %ID
Mean %ID/g, Blood ([1]; 6 h after dosing): 0.04 (0.01) %ID/g
Mean %ID/g, Brain ([1]; 6 h after dosing): 0.13 (0.01) %ID/g
Mean %ID/g, Heart ([1]; 6 h after dosing): 2.79 %ID/g
Mean %ID/g, Intestine ([1]; 6 h after dosing): 2.00 (0.49) %ID/g
Mean %ID/g, Kidneys ([1]; 6 h after dosing): 1.69 (0.22) %ID/g
Mean %ID/g, Liver ([1]; 6 h after dosing): 0.12 (0.02) %ID/g
Mean %ID/g, Lungs ([1]; 6 h after dosing): 0.55 (0.08) %ID/g
Mean %ID/g, Muscle ([1]; 6 h after dosing): 0.53 (0.05) %ID/g
Mean %ID/g, Pancreas ([1]; 6 h after dosing): 1.27 (0.10) %ID/g
Mean %ID/g, Spleen ([1]; 6 h after dosing): 0.56 (0.02) %ID/g
Mean %ID/g, Stomach ([1]; 6 h after dosing): 1.12 (0.12) %ID/g
Mean %ID, Intestine [1, 4]: 33.42 (1.37) %ID
Mean %ID, Kidneys [1, 4]: 3.44 (0.37) %ID
retention in all other organs examined (other than intestine, kidneys) ([1]; ex vivo biodistribution): < 2 %ID/g
myocardial uptake ([1]; from 2 to 6 h): 2.6–2.8 %ID/g
uptake in the myocardium ([1]; up to 6 h): higher than 2.5 %ID/g
myocardial uptake ([1]; within 1-hour post-injection): about 3.0 %ID/g
SUV in the myocardium, plateau ([2]; after 6 min): 3.5
SUV in the liver ([2]; at 45 min): 1.9
SUV in the myocardium at the beginning ([2]; dynamic microPET): 4.0
SUVmax in the liver ([2]; dynamic microPET): 2.9
average standardized uptake value, myocardial uptake ([2]; dynamic microPET): 3.8
